US20140309309A1, “COSMETIC FORMULATION” (EVONIK INDUSTRIES AG, priority 2011, published 2014)

Columns and labels:
healthy female subjects [1] = experiment: Human study, upper arm: echogenicity of the skin (DermaScan C); assay type: in vivo; conditions: twice daily
From the text: The panel consisted of healthy female subjects of Caucasian origin up to 70 years old who were in their postmenopausal phase. The echogenicity of the skin on the upper arms of the subjects was at most 60% (DermaScan® C, B-scan mode). The formulations were applied to the upper arms. Vehicle formulation (vehicle) and formulation with different concentrations of N-hexanoyl-phytosphingosine (N-hexanoyl-phytosphingosine) was applied by in each case 16 subjects. In the non-inventive vehicle formulation, which serves as comparison formulation, the corresponding % by mass of N-hexanoyl-phytosphingosine were replaced by additional % by mass of water.
(§1) Application was carried out twice daily, morning and evening, over a period of twelve weeks. Measurement points were before the start of application (T0), after four weeks (T4), after eight weeks (T8) and after twelve weeks (T12). A period over four weeks is accordingly referred to as T4-T0.
The measurements were performed in a temperature- and humidity-controlled room (24±2° C., 50±10 relative humidity). The subjects were asked to apply no product up to twelve hours before measurement and to no longer wash their arms from three hours before measurement.
The skin slackening was measured by measuring the echogenicity of the skin by means of a DermaScan® C ultrasound scanner. The echogenicity was recorded in the B-scan mode and given in %. […]

[2] = system: differentiated human adipocytes; experiment: Gene expression in differentiated human adipocytes (Affymetrix GeneChip); assay type: cell-based; conditions: 2.5 μM, 6 h, vs vehicle-treated adipocytes
Method: This example investigated the effect of N-hexanoyl-phytosphingosine on the gene expression in differentiated human adipocytes.
Cells, media and reagents were acquired from PromoCell. The cultivation was carried out in accordance with the protocol from PromoCell. Unless stated otherwise, the cells were cultivated at 37° C. and 5% CO2. Firstly, proliferating subcutaneous primary human white preadipocytes (HWP) from two different donors were cultivated in a special preadipocyte growth medium until complete confluence was reached. The medium was then exchanged for a special differential medium, and the cells were incubated with this medium for 72 hours. The medium was then exchanged for a further medium (Adipocyte Nutrition Medium) in order to conclude the differentiation process. The cells were further incubated with this medium for twelve days, with media exchange being carried out every three days. Ultimately, the medium was removed from the cells and replaced by fresh medium containing N-hexanoyl-phytosphingosine. The vehicle used was methanol, the end concentration of the vehicle in the medium being 0.05% (v/v). End concentration of N-hexanoyl-phytosphingosine in the medium was 2.5 μM. As the control, the cultivation was carried out without active ingredient, only with medium (vehicle). All of the cultivations were performed twice (with cells from two different donors).
(§2) After cultivation for six hours, the medium was removed and the cells were lysed by adding RNeasy Lysis Buffer (Qiagen). Isolation of whole-RNA was carried out in accordance with manufacturer's instructions. Combined, the whole-RNA was isolated by means of RNeasy Mini Kit (Qiagen). The RNA concentration was determined by spectrophotometry using a SmartSpec Plus (Biorad). Purity and integrity of the RNA were determined using Agilent 2100 Bioanalyzer with a 6000 Nano LabChip reagent set (Agilent Technologies, Inc.). RNA samples were stored at −80° C. until further processing.
(§3) Analysis of the gene expression was carried out using Affymetrix HGU133 plus 2.0 GeneChips (Affymetrix), with 2 μg of whole-RNA being used. For this, the RNA of the two different donor cultures was pooled. Expression analyses including standard data evaluation were carried out in accordance with manufacturer's instructions (Affymetrix.).

[3] = Percutaneous absorption study on a pig skin model; assay type: in vitro ADME; conditions: 0.2% in formulation in combination with 1.80% 1,2-pentanediol vs corresponding formulations without 1,2-pentanediol (FIG. 4)
Method: The increase in the skin penetration of N-hexanoyl-phytosphingosine from a cosmetic formulation as a result of adding 1,2-pentanediol was shown in the course of a percutaneous absorption study on a pig skin model. In practice, the study was performed in accordance with a current protocol, as described for example in S. Richert, A. Schrader, K. Schrader, Int. J. Cosmet. Sci. 2003, 25, 5-13.

human dermal fibroblasts = experiment: Gene expression in human dermal fibroblasts (Affymetrix GeneChip); assay type: cell-based; conditions: 5 μM, 24 h, vs vehicle-treated fibroblasts
From the text: The present example investigates the effect of N-hexanoyl-phytosphingosine on the gene expression in fibroblasts (normal human dermal fibroblasts, NHDFs).
For this, firstly primary human dermal fibroblasts (human dermal fibroblasts derived from neonatal skin, HDF), cryopreserved, Lifeline Cell Technology, acquired via CellSystems® Biotechnologie Vertrieb GmbH, in Minimum Essential Medium (MEM) with Earle's salts (EMEM) (PAA Laboratories GmbH) were cultivated with the addition of 10% foetal bovine serum (FBS, Invitrogen Ltd, UK), 1% nonessential amino acids (NEAA) (100×) (PAA Laboratories GmbH), 1% L-glutamine (100×) (Invitrogen Ltd) and 1% penicillin/streptomycin (5000 U/mL penicillin and 5000 μg/mL streptomycin/mL, (Invitrogen Ltd) at 37° C. and 5% CO2. For gene expression studies, the cells were sown out in 6-well plates and cultivated to the point of subconfluence (maximum 60%).
Then, the medium was removed from the cells and replaced by fresh medium containing N-hexanoyl-phytosphingosine. The vehicle used was methanol, the end concentration of the vehicle in the medium being 0.05% (v/v). The end concentration of N-hexanoyl-phytosphingosine in the medium was 5 μM. As the control, the cultivation was carried out without active ingredient, only with medium (vehicle). All of the cultivations were performed twice (with cells from two different donors).
as §2, with “24” for “six”
as §3, with “(AFFYMETRIX, INC.).” for “(Affymetrix.).”

healthy female subjects [4] = experiment: Human study, face: sagging of the skin assessed by a dermatologist (4-point scale); assay type: in vivo; conditions: 0.2% by mass in formulation with 1,2-pentanediol, twice daily, twelve weeks, all time points, compared with vehicle group (FIG. 1)
From the text: (§4) The panel comprises 60 healthy female subjects of Caucasian origin up to 70 years of age who were in their postmenopausal phase (average age 59.4 years). The formulations were applied on the face. Vehicle formulation (vehicle) and N-hexanoyl-phytosphingosine formulation (N-hexanoyl-phytosphingosine) was each applied by 30 subjects. In the case of the non-inventive vehicle formulation, which serves as comparison formulation, the 0.2% by mass of N-hexanoyl-phytosphingosine were replaced by an additional 0.2% by mass of water.
as §1
(§5) The measurements were performed in a temperature- and humidity-controlled room (24±2° C., 50±10 relative humidity). The subjects were requested to apply no product up to twelve hours prior to measurement and to wash their face three hours before measurement.
The sagging of the skin was assessed by a dermatologist by means of visual and tactile evaluation by reference to a 4-point scale (0=absent, 1=minimum, 2=moderate, 3=maximum).

healthy female subjects [5] = experiment: Human study, face: echogenicity of the skin (DermaScan C); assay type: in vivo; conditions: 0.2% by mass in formulation, twice daily
From the text: as §4, §1, §5
The echogenicity of the skin was measured using a DermaScan® C ultrasound scanner. The instrument is based on the physical principle of the ultrasound emission of a transducer. […] Their intensity is detected by a microprocessor. […] The echogenicity was recorded in the B-scan mode and given in %. […]

healthy female subjects [6] = experiment: Human study, face: skin roughness (Primos Pico, Sa parameter); assay type: in vivo; conditions: 0.2% by mass in formulation, twice daily, entire study period of twelve weeks (FIG. 2)
From the text: as §4
Application was carried out twice daily, morning and evening, over a period of twelve weeks. Measurement points were before the start of application (T0), after four weeks (T4), after eight weeks (T8) and after twelve weeks (T12). A period over four weeks is accordingly referred to as T4-T0. […]
The roughness of the skin was determined by means of Primos Pico optical 3D-Sensor (GF Messtechnik GmbH). […] Bands are projected onto the surface of the skin and the projection is recorded under a defined triangulation angle by means of a CCD camera. The topography of the measured object is calculated by the position of the bands and the grey scales of all registered image points. […] The average roughness Sa was determined; this reflects the arithmetic mean of the skin roughness in the recorded image.

For `CCCCCCCCCCCCCC[C@@H](O)[C@@H](O)[C@H](CO)NC(=O)CCCCC` [N-hexanoyl-phytosphingosine], the “echogenicity of the skin on the upper arm compared with the starting value” (healthy female subjects [1]; 0.02% in formulation, increase only measurable after a treatment time of eight weeks (FIG. 5)) was “less marked”, the “echogenicity of the skin on the upper arm compared with the starting value” (healthy female subjects [1]; 0.05% in formulation, four, eight and twelve weeks (FIG. 5)) was “increase in the echogenicity of the skin” and the “Regulation of the gene expression by N-hexanoyl-phytosphingosine: ACACA (acetyl-coenzyme A carboxylase alpha)” value [2] was “+1.5 fold”. For the same compound, the “Regulation of the gene expression by N-hexanoyl-phytosphingosine: ADIPOQ (adiponectin)” value [2] was “+2.2 fold”, the “Regulation of the gene expression by N-hexanoyl-phytosphingosine: CEBPB (CAAT/enhancer binding protein (C/EBP), beta)” value [2] was “+2.1 fold” and the “Regulation of the gene expression by N-hexanoyl-phytosphingosine: FAS (fatty acid synthase)” value [2] was “+1.4 fold”. The “Regulation of the gene expression by N-hexanoyl-phytosphingosine: LEP (leptin)” value [2] was “+2.7 fold”, the “Regulation of the gene expression by N-hexanoyl-phytosphingosine: LEPR (leptin receptor)” value [2] was “+4.1 fold” and the “Regulation of the gene expression by N-hexanoyl-phytosphingosine: LIPC (lipase)” value [2] was −2.5 fold. The “Regulation of the gene expression by N-hexanoyl-phytosphingosine: PPARD (peroxisome proliferator activated receptor, delta)” value [2] was “+1.7 fold”, the “Regulation of the gene expression by N-hexanoyl-phytosphingosine: PPARG (peroxisome proliferator activated receptor, gamma)” value [2] was “+2.5 fold” and the “Regulation of the gene expression by N-hexanoyl-phytosphingosine: THBS1 (thrombospondin 1)” value [2] was “+5.9 fold”. The “bioavailability (skin penetration) of N-hexanoyl-phytosphingosine from formulation” value [3] was “increase in bioavailability”, the “Regulation of the gene expression by N-hexanoyl-phytosphingosine: ACAN (aggrecan)” value (human dermal fibroblasts) was “+1.7 fold” and the “Regulation of the gene expression by N-hexanoyl-phytosphingosine: COL10A1 (collagen, type X, alpha 1)” value (human dermal fibroblasts) was “+3.2 fold”. For the same compound, the “Regulation of the gene expression by N-hexanoyl-phytosphingosine: COL11A1 (collagen, type XI, alpha 1)” value (human dermal fibroblasts) was “+2.2 fold”, the “Regulation of the gene expression by N-hexanoyl-phytosphingosine: FGF18 (fibroblast growth factor 18)” value (human dermal fibroblasts) was “+2.2 fold” and the “Regulation of the gene expression by N-hexanoyl-phytosphingosine: HAPLN1 (hyaluronan and proteoglycan link protein)” value (human dermal fibroblasts) was “+4.1 fold”. The “Regulation of the gene expression by N-hexanoyl-phytosphingosine: IGF1 (insulin-like growth factor 1)” value (human dermal fibroblasts) was “+2.0 fold”, the “Regulation of the gene expression by N-hexanoyl-phytosphingosine: ITGA2 (integrin alpha-2)” value (human dermal fibroblasts) was “+1.6 fold” and the “Regulation of the gene expression by N-hexanoyl-phytosphingosine: LEP (leptin)” value (human dermal fibroblasts) was “+2.2 fold”. The “Regulation of the gene expression by N-hexanoyl-phytosphingosine: MMP3 (matrix metallopeptidase 3)” value (human dermal fibroblasts) was −1.4 fold, the “decrease in sagging of the skin” value (healthy female subjects [4]) was “more marked” and the “change in the echogenicity of the skin” value (healthy female subjects [5]; after four weeks (T4-T0) (FIG. 3)) was “slight decrease in echogenicity”. The “change in the echogenicity of the skin” value (healthy female subjects [5]; as the study progressed (to T12) (FIG. 3)) was “steadily improved” and the “change in skin roughness (Sa parameter)” value (healthy female subjects [6]) was “steadily further reduced”.
